Assay results reported in ChEMBL document CHEMBL1143726, “Indole alkaloids produced by a marine fungus isolate of Penicillium janthinellum Biourge” (2007).
Calls of active or inactive are those of the source. The rule behind the calls is not given here.

Assays:
HL-60 = assay: Induction of apoptosis in human HL60 cells at 100 uM after 24 hrs by flow cytometry relative to control; assay type: functional
C1 41 = assay: Cytotoxicity against mouse JB6 C1 41 cells up to 200 uM by MTS assay; assay type: functional, cell-based
[1] = Inhibition of EGF-induced malignant transformation of mouse JB6 C1 41 cells in soft agar; assay type: functional

Compound	Activity (HL-60) [%]	Activity (C1 41)	INCC50 [1] [µM]
CC1(C)C=C2c3cc4[nH]c5c(c4cc3C[C@@H]2C(C)(C)O1)C[C@@H]1CC[C@@]2(O)C3=CC(=O)[C@@H]4O[C@@]3(CC[C@]2(C)[C@@]51C)OC4(C)C [SHEARININE A]	10	inactive	
CC(C)=CCc1cc2[nH]c3c(c2cc1CC=C(C)C)C[C@@H]1CC[C@@]2(O)C4=CC(=O)[C@@H]5O[C@@]4(CC[C@]2(C)[C@@]31C)OC5(C)C		inactive	
CC1(C)C=C2c3cc4[nH]c5c(c4cc3[C@H](O)[C@@H]2C(C)(C)O1)C[C@@H]1CC[C@@]2(O)C3=CC(=O)[C@@H]4O[C@@]3(CC[C@]2(C)[C@@]51C)OC4(C)C [SHEARININE E]	34	inactive	13
CC1(C)C=C2c3cc4[nH]c5c(c4cc3[C@@H](O)[C@@H]2C(C)(C)O1)C[C@@H]1CC[C@@]2(O)C3=CC(=O)[C@@H]4O[C@@]3(CC[C@]2(C)[C@@]51C)OC4(C)C [SHEARININE D]	39	inactive	
